This note sets out measurements from US6780995B2, “Activated iododerivatives for the treatment of cancer and aids” (Isotechnika Inc., priority 1997, dated 2004).

In general, melting point refers to the temperature of the solid-liquid transition.

One data set relates to A549 cells. Nature of the data set: IC50 assay, inhibition of cell proliferation and growth, A549. It is filed as cell-based, human. The settings on record: Homo sapiens, A549, read-out: IC50 Concentrations, A 549. As for the experimental part:
(§1) Cell culture: The human cell lines were propagated under sterile conditions in RPMI 1640 (CellGrow) with 10% fetal bovine serum (Hyclone), 2 mM L-glutamine, and sodium bicarbonate (complete medium) and incubated at 37° C. in HEPA-filtered Sterilcult CO2 tissue culture incubators (Forma) with 5% CO^2 and 95% humidity (Table 1). The murine leukemia cell lines were propagated in Dulbecco's MEM media with 10% equine serum (Hyclone), 2 mM L-glutamine, and sodium bicarbonate (complete medium) and incubated as described. The cells were subcultured twice weekly and used in experiments. The culture was screened for mycoplasma contamination using GeneProbe™ (Fisher) and positive cultures were cured of contaminants over three passages using constant treatment with BM-Cyclin™ antibiotic combination (Boehringer Mannheim). Only cultures confirmed as mycoplasma free were used in testing compounds for anticellular activity.
(§2) The test compounds were stored at 4° C. under light protected conditions. The test compounds were weighed and dissolved in DMSO. The dissolved compounds were then serially diluted in warm medium (RPMI 1640 or Dulbecco's MEM) under constant mixing to minimize precipitation. The positive control drug doxorubicin was diluted in water followed by dilution in media to achieve a final concentration of 200 nM.
(§3) For all experiments, the cells were harvested and centrifuged to remove the media, and suspended in fresh completed medium. Samples were taken to determine cell density. The cell count was determined with a Coulter Model Z1 cell counter and viability was measured with propidium iodide staining followed by analysis on a Coulter EPPICS Elite Flow cytometer. The cell samples sere adjusted with complete medium to a density of 5×10^4/mL for adherent cell lines and 1×10^5/mL for suspension lines. Tissue culture cluster plates (96 well, cat. No. 3595 Costar for adherent human lines and cat No. 25850 Corning for murine leukemias) were seeded with 100 μL cells and incubated as described. Replicate groups of plates were set up for each line to accommodate the exposure options for single agents and combinations. For each dilution 8 wells (100 μL samples of cells) were treated with 100 μL of dosing solution one day after plating. Each cluster plate contained a cell control (8 wells, mock-treated with complete medium), a medium control (3 wells with medium used to subtract out signal generated by media conditions), and an air blank (1 well, for calibrating the plate reader).
(§4) Anticellular effects of the compounds for the adherent cell lines were assessed with neutral red dye. On the day of analysis, the media was removed from sample cell monolayers and replaced with 0.1 mL of neutral red solution (0.5% neutral red, HBSS:RPMI 1640 (1:1), 0.05 M HEPES, pH 7.2). After incubation of the samples at 37° C. for 1 hour the excess dye was removed with blotting and the monolayers were washed twice with 0.85% NaCl solution (0.1 mL per wash). The cell associated dye was extracted by adding 0.2 mL of a 0.1 M NaH2PO4:ethanol (1:1) solution/well followed by incubation for 1 hour at 35° C. The absorbency of neutral red in each monolayer was measured at 550 nm (620 nm reference beam) on a Denley Anthos 2001 microplate reader. The data were transferred via the ARCOM software capture program in Lotus 1-2-3 for processing.
(§5) In assays where technical difficulties due to crystalization of the neutral red occurred the crystal violet staining procedure was employed to measure the amount of cells were left on the plate. Crystal violet staining solution [0.5% crystal violet (w/v), 50% methanol (v/v), 45% saline (v/v), and 5% formalin (v/v)] were prepared on the day of staining. After the media was removed from the sample wells, two drops of crystal violet stain were added to each well and the samples were incubated at ambient temperature for 10 minutes. […]
Consider `CN(C)CCNC(=O)c1cc([N+](=O)[O-])ccc1I` [Ref. No. 1, (N,N-Dimethylaminoethyl)-2-Iodo-5-Nitro-Benzamide], for which the IC50 came to 333 µM.
Same read-out and setting: in the case of `CCN(CC)CCNC(=O)c1cc([N+](=O)[O-])ccc1I` [Ref. No. 2, (N,N-Diethylaminoethyl)-2-Iodo-5-Nitro-Benzamide] it was 333 µM.
Take `O=C(Nc1ccc2c(C(F)(F)F)cc(=O)oc2c1)c1cc([N+](=O)[O-])ccc1I` [Ref. No. 3, 7-(2′-Iodo-5′-Nitro-Benzamido)-4-Trifluoromethyl-2H-1-Benzopyran-2-one]: the IC50 is 363 µM.
Regarding `O=C(Nc1ncc([N+](=O)[O-])s1)c1cc([N+](=O)[O-])ccc1I` [Ref. No. 6, 2-(2′-Iodo-5′-Nitro-Benzamido)-5-Nitro-Thiazole], the IC50 came to 86.5 µM.
Same read-out and setting: then `O=C(c1cc([N+](=O)[O-])ccc1I)N(C(=O)c1cc([N+](=O)[O-])ccc1I)C1=NCCS1` [Ref. No. 17], with 127 µM.
Same read-out and setting: in the case of `Cc1csc(N(C(=O)c2cc([N+](=O)[O-])ccc2I)C(=O)c2cc([N+](=O)[O-])ccc2I)n1` [Ref. No. 20] it was 48.4 µM.

Test system in a further data set: not given
Test: not given
Settings: not given
Regarding `CN(C)CCNC(=O)c1cc([N+](=O)[O-])ccc1I` [Ref. No. 1, (N,N-Dimethylaminoethyl)-2-Iodo-5-Nitro-Benzamide], the melting point is 126 to 128 °C.
`CCN(CC)CCNC(=O)c1cc([N+](=O)[O-])ccc1I` [Ref. No. 2, (N,N-Diethylaminoethyl)-2-Iodo-5-Nitro-Benzamide] gave a melting point of 124 to 126 °C.
Consider `O=C(Nc1ccc2c(C(F)(F)F)cc(=O)oc2c1)c1cc([N+](=O)[O-])ccc1I` [Ref. No. 3, 7-(2′-Iodo-5′-Nitro-Benzamido)-4-Trifluoromethyl-2H-1-Benzopyran-2-one], for which the melting point lay in the range of 223 to 227 °C.
The compound `O=C(Nc1ncc([N+](=O)[O-])s1)c1cc([N+](=O)[O-])ccc1I` [Ref. No. 6, 2-(2′-Iodo-5′-Nitro-Benzamido)-5-Nitro-Thiazole] came in with a melting point of 230 to 234 °C.

In another data set the test system is SK-OV-3 cells. Put plainly: IC50 assay, inhibition of cell proliferation and growth, SK-OV-3. The format is cell-based, human. The settings on record: Homo sapiens, SK-OV-3, read-out: IC50 Concentrations, SK-OV-3. How it is done:
as §1, §2, §3, §4, §5
Consider `CN(C)CCNC(=O)c1cc([N+](=O)[O-])ccc1I` [Ref. No. 1, (N,N-Dimethylaminoethyl)-2-Iodo-5-Nitro-Benzamide], for which the IC50 was determined as 404 µM.
Regarding `O=C(Nc1ccc2c(C(F)(F)F)cc(=O)oc2c1)c1cc([N+](=O)[O-])ccc1I` [Ref. No. 3, 7-(2′-Iodo-5′-Nitro-Benzamido)-4-Trifluoromethyl-2H-1-Benzopyran-2-one], the IC50 is 44 µM.
For `O=C(Nc1ncc([N+](=O)[O-])s1)c1cc([N+](=O)[O-])ccc1I` [Ref. No. 6, 2-(2′-Iodo-5′-Nitro-Benzamido)-5-Nitro-Thiazole], the IC50 was 130 µM.
Turning to `O=C(c1cc([N+](=O)[O-])ccc1I)N(C(=O)c1cc([N+](=O)[O-])ccc1I)C1=NCCS1` [Ref. No. 17], the IC50 was 32 µM.
As for `Cc1csc(N(C(=O)c2cc([N+](=O)[O-])ccc2I)C(=O)c2cc([N+](=O)[O-])ccc2I)n1` [Ref. No. 20], the IC50 stood at 10.8 µM.

The next data set concerns COLO 205 cells. Put plainly: IC50 assay, inhibition of cell proliferation and growth, COLO 205. The settings on record: Homo sapiens, COLO 205, read-out: IC50 Concentrations, COLO 205. The format is cell-based, human. How it is done: as §1, §2, §3, §4, §5
Regarding `CN(C)CCNC(=O)c1cc([N+](=O)[O-])ccc1I` [Ref. No. 1, (N,N-Dimethylaminoethyl)-2-Iodo-5-Nitro-Benzamide], the IC50 is 267 µM.
Regarding `CCN(CC)CCNC(=O)c1cc([N+](=O)[O-])ccc1I` [Ref. No. 2, (N,N-Diethylaminoethyl)-2-Iodo-5-Nitro-Benzamide], the IC50 worked out at 343 µM.
For `O=C(Nc1ccc2c(C(F)(F)F)cc(=O)oc2c1)c1cc([N+](=O)[O-])ccc1I` [Ref. No. 3, 7-(2′-Iodo-5′-Nitro-Benzamido)-4-Trifluoromethyl-2H-1-Benzopyran-2-one], the IC50 stood at 39.9 µM.
For the compound `O=C(Nc1ncc([N+](=O)[O-])s1)c1cc([N+](=O)[O-])ccc1I` [Ref. No. 6, 2-(2′-Iodo-5′-Nitro-Benzamido)-5-Nitro-Thiazole], the IC50 turned out to be 117 µM.
For `O=C(c1cc([N+](=O)[O-])ccc1I)N(C(=O)c1cc([N+](=O)[O-])ccc1I)C1=NCCS1` [Ref. No. 17], the IC50 was over 500 µM.
On the same count and under the same terms, in the case of `Cc1csc(N(C(=O)c2cc([N+](=O)[O-])ccc2I)C(=O)c2cc([N+](=O)[O-])ccc2I)n1` [Ref. No. 20] it was 42.6 µM.

The subject of the next data set is RPMI 8226 cells. Nature of the data set: IC50 assay, inhibition of cell proliferation and growth, RPMI 8226. The format is cell-based. The conditions noted are these: Homo sapiens, RPMI-8226, read-out: IC50 Concentrations, RPM 18226. How it is done:
as §1, §2, §3
Using the procedures described above, concentrations of the Example compounds necessary to inhibit cell proliferation and growth by 50% (1C50 values) were determined in the test cell lines.
As for `O=C(c1cc([N+](=O)[O-])ccc1I)N(C(=O)c1cc([N+](=O)[O-])ccc1I)C1=NCCS1` [Ref. No. 17], the IC50 is over 50 µM.
As for `Cc1csc(N(C(=O)c2cc([N+](=O)[O-])ccc2I)C(=O)c2cc([N+](=O)[O-])ccc2I)n1` [Ref. No. 20], the IC50 is 13.7 µM.

The next data set has as its system SK-MEL-5 cells. Put plainly: IC50 assay, inhibition of cell proliferation and growth, SK-MEL-5. It is filed as cell-based, human. The conditions noted are these: Homo sapiens, SK-MEL-5, read-out: IC50 Concentrations, SK MEL-5. As for the experimental part: as §1, §2, §3, §4, §5
Take `CN(C)CCNC(=O)c1cc([N+](=O)[O-])ccc1I` [Ref. No. 1, (N,N-Dimethylaminoethyl)-2-Iodo-5-Nitro-Benzamide]: the IC50 was found to be 40.1 µM.
Same read-out and setting: then `O=C(Nc1ccc2c(C(F)(F)F)cc(=O)oc2c1)c1cc([N+](=O)[O-])ccc1I` [Ref. No. 3, 7-(2′-Iodo-5′-Nitro-Benzamido)-4-Trifluoromethyl-2H-1-Benzopyran-2-one], with 37.7 µM; and `O=C(Nc1ncc([N+](=O)[O-])s1)c1cc([N+](=O)[O-])ccc1I` [Ref. No. 6, 2-(2′-Iodo-5′-Nitro-Benzamido)-5-Nitro-Thiazole], with 132 µM; and `O=C(c1cc([N+](=O)[O-])ccc1I)N(C(=O)c1cc([N+](=O)[O-])ccc1I)C1=NCCS1` [Ref. No. 17], with 42.8 µM.
Regarding `Cc1csc(N(C(=O)c2cc([N+](=O)[O-])ccc2I)C(=O)c2cc([N+](=O)[O-])ccc2I)n1` [Ref. No. 20], the IC50 came to 47.1 µM.

In another data set the test system is MCF7 cells. Nature of the data set: IC50 assay, inhibition of cell proliferation and growth, MCF7. It is filed as cell-based, human. The settings on record: Homo sapiens, MCF7, read-out: IC50 Concentrations, MCF 7. How it is done: as §1, §2, §3, §4, §5
For the compound `CN(C)CCNC(=O)c1cc([N+](=O)[O-])ccc1I` [Ref. No. 1, (N,N-Dimethylaminoethyl)-2-Iodo-5-Nitro-Benzamide], the IC50 was 133 µM.
In the case of `CCN(CC)CCNC(=O)c1cc([N+](=O)[O-])ccc1I` [Ref. No. 2, (N,N-Diethylaminoethyl)-2-Iodo-5-Nitro-Benzamide], the IC50 was 128 µM.
For `O=C(Nc1ccc2c(C(F)(F)F)cc(=O)oc2c1)c1cc([N+](=O)[O-])ccc1I` [Ref. No. 3, 7-(2′-Iodo-5′-Nitro-Benzamido)-4-Trifluoromethyl-2H-1-Benzopyran-2-one], the IC50 was found to be 114 µM.
Regarding `O=C(Nc1ncc([N+](=O)[O-])s1)c1cc([N+](=O)[O-])ccc1I` [Ref. No. 6, 2-(2′-Iodo-5′-Nitro-Benzamido)-5-Nitro-Thiazole], the IC50 is 80.9 µM.
For the compound `O=C(c1cc([N+](=O)[O-])ccc1I)N(C(=O)c1cc([N+](=O)[O-])ccc1I)C1=NCCS1` [Ref. No. 17], the IC50 amounted to 46.9 µM.
For `Cc1csc(N(C(=O)c2cc([N+](=O)[O-])ccc2I)C(=O)c2cc([N+](=O)[O-])ccc2I)n1` [Ref. No. 20], the IC50 was 36.1 µM.

In another data set the test system is M14 cells. Nature of the data set: IC50 assay, inhibition of cell proliferation and growth, M14. The conditions noted are these: Homo sapiens, M14, read-out: IC50 Concentrations, M14. The format is cell-based, human. As for the experimental part: as §1, §2, §3, §4, §5
As for `CN(C)CCNC(=O)c1cc([N+](=O)[O-])ccc1I` [Ref. No. 1, (N,N-Dimethylaminoethyl)-2-Iodo-5-Nitro-Benzamide], the IC50 amounted to 474 µM.
The same measure, in the same setting: in the case of `O=C(Nc1ccc2c(C(F)(F)F)cc(=O)oc2c1)c1cc([N+](=O)[O-])ccc1I` [Ref. No. 3, 7-(2′-Iodo-5′-Nitro-Benzamido)-4-Trifluoromethyl-2H-1-Benzopyran-2-one] it was 126 µM; in that of `O=C(Nc1ncc([N+](=O)[O-])s1)c1cc([N+](=O)[O-])ccc1I` [Ref. No. 6, 2-(2′-Iodo-5′-Nitro-Benzamido)-5-Nitro-Thiazole], 141 µM.
The same measure, in the same setting: in the case of `O=C(c1cc([N+](=O)[O-])ccc1I)N(C(=O)c1cc([N+](=O)[O-])ccc1I)C1=NCCS1` [Ref. No. 17] it was 37.9 µM.
The same measure, in the same setting: then `Cc1csc(N(C(=O)c2cc([N+](=O)[O-])ccc2I)C(=O)c2cc([N+](=O)[O-])ccc2I)n1` [Ref. No. 20], with 15.1 µM.
